Experimental data from PubChem BioAssay (NCI).
Where “and” joins values, the source holds several entries; their conditions need not be identical. Equal values may be shown once.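 Method: 48-hour compound exposure of cells in 96-well plates, five concentrations, linear interpolation of endpoints. The concentration for 50% growth inhibition is given as GI50. At the TGI there is no net growth.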

Assays:
Assay in all cases: growth of human tumour cells (NCI), 48 h
[1] = system: 786-0 renal
[2] = system: A498 renal
[3] = system: A549 NSCLC
[4] = system: ACHN renal
[5] = system: BT-549 breast
[6] = system: CAKI-1 renal
[7] = system: CCRF-CEM leukemia
[8] = system: COLO 205 colon
[9] = system: DU-145 prostate
[10] = system: EKVX NSCLC
[11] = system: HCC-2998 colon
[12] = system: HCT-116 colon
[13] = system: HCT-15 colon
[14] = system: HL-60(TB) leukemia
[15] = system: HOP-62 NSCLC
[16] = system: HOP-92 NSCLC
[17] = system: HS 578T breast
[18] = system: HT29 colon
[19] = system: IGROV1 ovarian
[20] = system: K-562 leukemia
[21] = system: KM12 colon
[22] = system: LOX IMVI melanoma
[23] = system: M14 melanoma
[24] = system: MALME-3M melanoma
[25] = system: MCF7 breast
[26] = system: MDA-MB-231 breast
[27] = system: MDA-MB-435
[28] = system: MDA-MB-468 breast
[29] = system: MOLT-4 leukemia
[30] = system: NCI-H226 lung
[31] = system: NCI-H23 lung
[32] = system: NCI-H460 lung
[33] = system: NCI-H522 lung
[34] = system: NCI/ADR-RES ovarian
[35] = system: OVCAR-3 ovarian
[36] = system: OVCAR-4 ovarian
[37] = system: OVCAR-5 ovarian
[38] = system: OVCAR-8 ovarian
[39] = system: PC-3 prostate
[40] = system: RPMI-8226 leukemia
[41] = system: RXF 393 renal
[42] = system: SF-268 CNS
[43] = system: SF-295 CNS
[44] = system: SF-539 CNS
[45] = system: SK-MEL-2 melanoma
[46] = system: SK-MEL-28 melanoma
[47] = system: SK-MEL-5 melanoma
[48] = system: SK-OV-3 ovarian
[49] = system: SN12C renal
[50] = system: SNB-19 CNS
[51] = system: SNB-75 CNS
[52] = system: SR leukemia
[53] = system: SW-620 colon
[54] = system: T-47D breast
[55] = system: TK-10 renal
[56] = system: U251 CNS
[57] = system: UACC-257 melanoma
[58] = system: UACC-62 melanoma
[59] = system: UO-31 renal

## COc1ccc(OC)c(-c2cc(-c3c[nH]c4ccccc34)nc(N)c2C#N)c1
[1]
  GI50: 2610 nM
  TGI: 9.13 µM
[2]
  GI50: 8.86 µM
  TGI: 21.9 µM
[3]
  GI50: 3.74 µM
  TGI: 27.5 µM
[4]
  GI50: 4.92 µM
  TGI: 22.7 µM
[5]
  GI50: 1960 nM
  TGI: 12.3 µM
[6]
  GI50: 1510 nM
  TGI: 20.6 µM
[7]
  GI50: 2400 nM
  TGI: 28.8 µM
[8]
  GI50: 2810 nM
  TGI: 10.7 µM
[9]
  GI50: 8.2 µM
  TGI: 27.5 µM
[10]
  GI50: 1570 nM
  TGI: 16.4 µM
[11]
  GI50: 2980 nM
  TGI: 13.9 µM
[12]
  GI50: 2420 nM
  TGI: 13.2 µM
[13]
  GI50: 903 nM
  TGI: 13.4 µM
[14]
  GI50: 2420 nM
  TGI: 25.4 µM
[15]
  GI50: 2880 nM
  TGI: 16.2 µM
[16]
  GI50: 1300 nM
  TGI: 4.38 µM
[17]
  GI50: 2170 nM
  TGI: 8.13 µM
[18]
  GI50: 2740 nM
  TGI: 12.3 µM
[19]
  GI50: 5.59 µM
  TGI: 23.1 µM
[20]
  GI50: 881 nM
  TGI: 82.3 µM
[21]
  GI50: 2710 nM
  TGI: 13.6 µM
[22]
  GI50: 2950 nM
  TGI: 12.8 µM
[23]
  GI50: 1600 nM
  TGI: 11.6 µM
[24]
  GI50: 3.25 µM
  TGI: 16.7 µM
[25]
  GI50: 135 nM
  TGI: 12.5 µM
[26]
  GI50: 2060 nM
  TGI: 12.6 µM
[27]
  GI50: 390 nM
  TGI: 1860 nM
[28]
  GI50: 65.9 nM
  TGI: 0.369 µM
[29]
  GI50: 3.84 µM
  TGI: 27 µM
[30]
  GI50: 5.81 µM
  TGI: 20.5 µM
[31]
  GI50: 2820 nM
  TGI: 15.2 µM
[32]
  GI50: 1580 nM
  TGI: 13.2 µM
[33]
  GI50: 736 nM
  TGI: 7.28 µM
[34]
  GI50: 1220 nM
  TGI: 5.02 µM
[35]
  GI50: 2940 nM
  TGI: 14.2 µM
[36]
  GI50: 5.42 µM
  TGI: 25.3 µM
[37]
  GI50: 5.94 µM
  TGI: 21.8 µM
[38]
  GI50: 4.94 µM
  TGI: 18.2 µM
[39]
  GI50: 1930 nM
  TGI: 15.5 µM
[40]
  GI50: 1950 nM
  TGI: > 100 µM
[41]
  GI50: 1770 nM
  TGI: 10.4 µM
[42]
  GI50: 3.63 µM
  TGI: 19 µM
[43]
  GI50: 3.43 µM
  TGI: 13 µM
[44]
  GI50: 2900 nM
  TGI: 11.7 µM
[45]
  GI50: 2390 nM
  TGI: 6.58 µM
[46]
  GI50: 3.46 µM
  TGI: 17.8 µM
[47]
  GI50: 804 nM
  TGI: 4.18 µM
[48]
  GI50: 3.63 µM
  TGI: 18 µM
[49]
  GI50: 5.06 µM
  TGI: 17.7 µM
[50]
  GI50: 5.47 µM
  TGI: 19.3 µM
[51]
  GI50: 1300 nM
  TGI: 5.14 µM
[52]
  GI50: 539 nM
  TGI: 21.2 µM
[53]
  GI50: 2900 nM
  TGI: 15.6 µM
[54]
  GI50: 2180 nM
  TGI: 12.6 µM
[55]
  GI50: 11.1 µM
  TGI: 33.7 µM
[56]
  GI50: 3.2 µM
  TGI: 13.8 µM
[57]
  GI50: 9.47 µM
  TGI: 21.5 µM
[58]
  GI50: 2670 nM
  TGI: 13.5 µM
[59]
  GI50: 3.9 µM
  TGI: 18.4 µM

## COc1cc(CNCCN2C(=O)c3ccc4c5c(ccc(c35)C2=O)C(=O)N(CCNCc2cc(OC)c(OC)c(OC)c2)C4=O)cc(OC)c1OC
[28]
  GI50: 123 nM
  TGI: 0.323 µM

## CC1(C)N=C(N)N=C(N)N1c1ccc(Cl)cc1
[28]
  GI50: 873 nM
  TGI: > 100 µM

## COc1ccc(CCN(CC(=O)N(CC(N)=O)C2CCC[C@@H]2OCc2ccccc2)C(=O)CN(C(=O)CN(CCc2ccc(Cl)cc2)C(=O)CN(C(=O)CN(C)Cc2ccccc2F)[C@H](C)C2CCCCC2)[C@H](C)C2CCCCC2)cc1OC (stereo partly specified)
[28]
  GI50: 941 nM
  TGI: 4.2 µM

## COCCOC1=CC(=O)c2c(O)ccc(O)c2C1=O
[28]
  GI50: 1270 nM
  TGI: 2.78 µM

## CC(C)(C)c1cc(NC(=O)Nc2ccc(-c3cn4c(n3)sc3cc(OCCN5CCOCC5)ccc34)cc2)no1
[28]
  GI50: 3640 nM and 2550 nM and > 10000 nM
  TGI: 12.2 µM and 14.2 µM and > 10 µM

## CC1(C)N=C(N)N=C(N)N1c1ccc(OCCCNC(=O)Nc2cccc(S(=O)(=O)F)c2)c(Cl)c1
[28]
  GI50: 15700 nM
  TGI: > 100 µM

## COC(=O)c1cc2oc(/C=C3/SC(=S)N(N)C3=O)cc2n1Cc1ccccc1
[28]
  GI50: 74400 nM
  TGI: > 100 µM

## Oc1c(Cl)cc(Cl)cc1/C=N/Nc1nnc(N/N=C/c2cc(Cl)cc(Cl)c2O)c2ccccc12
[28]
  GI50: 337 nM
  TGI: 1.88 µM

## O=C1CC(c2ccccc2)Cc2nc3ccc(Br)cc3cc21 (stereo unspecified)
[28]
  GI50: 2230 nM
  TGI: 7.94 µM

## N#Cc1c(NC(=O)c2ccc(F)cc2)sc2c1CCCC2
[28]
  GI50: > 25000 nM
  TGI: > 25 µM

## COC(=O)[C@]12CC[C@@H](C)[C@H](C)[C@@H]1C1=CC[C@@H]3[C@@]4(C)C[C@@H](OC(=O)/C=C/c5ccccc5)[C@H](O)[C@@](C)(CO)[C@@H]4[C@H](O)C[C@@]3(C)[C@]1(C)CC2
[28]
  GI50: 2540 nM
  TGI: 8.94 µM

## C#Cc1cccc(Nc2ncnc3ccc(OCCCCNCCS(C)(=O)=O)cc23)c1
[28]
  GI50: 94 nM
  TGI: 0.666 µM

## CC(C)(C)CC(C)(C)c1ccc(O)c(Cc2ccc(Cl)cc2Cl)c1
[28]
  GI50: 1660 nM
  TGI: 3.08 µM

## Cn1cc(C2=C(c3cn(-c4ccccc4)c4ccccc34)C(=O)NC2=O)c2ccccc21
[28]
  GI50: 7580 nM
  TGI: > 25 µM
